Measured values reported in publication PMC2673211, “Nitric oxide activates ATP-sensitive potassium channels in mammalian sensory neurons: action by direct S-nitrosylation” (Molecular Pain, 2009).
Read-outs that look alike come from different tables or passages of the source.

Experiments:
Format in all cases: biochemical
[1] = molecular target: T1, SUR1-C717S/Kir6.2 channels (Rattus norvegicus, UniProt P70673+Q09429, C717S); experiment: Inside-out patch recording of mutated channels expressed in COS7 cells; settings: n = 7
T1 construct: A full-length Kir cDNA and a full-length SUR cDNA were subcloned into the mammalian expression vector; expressed in transfected cells; host or cells: COS7 cells, pcDNA3.1(-) vectors, GFP cDNA co-transfected as a separate reporter
T1 sequence (Q09429 whole entry C717S): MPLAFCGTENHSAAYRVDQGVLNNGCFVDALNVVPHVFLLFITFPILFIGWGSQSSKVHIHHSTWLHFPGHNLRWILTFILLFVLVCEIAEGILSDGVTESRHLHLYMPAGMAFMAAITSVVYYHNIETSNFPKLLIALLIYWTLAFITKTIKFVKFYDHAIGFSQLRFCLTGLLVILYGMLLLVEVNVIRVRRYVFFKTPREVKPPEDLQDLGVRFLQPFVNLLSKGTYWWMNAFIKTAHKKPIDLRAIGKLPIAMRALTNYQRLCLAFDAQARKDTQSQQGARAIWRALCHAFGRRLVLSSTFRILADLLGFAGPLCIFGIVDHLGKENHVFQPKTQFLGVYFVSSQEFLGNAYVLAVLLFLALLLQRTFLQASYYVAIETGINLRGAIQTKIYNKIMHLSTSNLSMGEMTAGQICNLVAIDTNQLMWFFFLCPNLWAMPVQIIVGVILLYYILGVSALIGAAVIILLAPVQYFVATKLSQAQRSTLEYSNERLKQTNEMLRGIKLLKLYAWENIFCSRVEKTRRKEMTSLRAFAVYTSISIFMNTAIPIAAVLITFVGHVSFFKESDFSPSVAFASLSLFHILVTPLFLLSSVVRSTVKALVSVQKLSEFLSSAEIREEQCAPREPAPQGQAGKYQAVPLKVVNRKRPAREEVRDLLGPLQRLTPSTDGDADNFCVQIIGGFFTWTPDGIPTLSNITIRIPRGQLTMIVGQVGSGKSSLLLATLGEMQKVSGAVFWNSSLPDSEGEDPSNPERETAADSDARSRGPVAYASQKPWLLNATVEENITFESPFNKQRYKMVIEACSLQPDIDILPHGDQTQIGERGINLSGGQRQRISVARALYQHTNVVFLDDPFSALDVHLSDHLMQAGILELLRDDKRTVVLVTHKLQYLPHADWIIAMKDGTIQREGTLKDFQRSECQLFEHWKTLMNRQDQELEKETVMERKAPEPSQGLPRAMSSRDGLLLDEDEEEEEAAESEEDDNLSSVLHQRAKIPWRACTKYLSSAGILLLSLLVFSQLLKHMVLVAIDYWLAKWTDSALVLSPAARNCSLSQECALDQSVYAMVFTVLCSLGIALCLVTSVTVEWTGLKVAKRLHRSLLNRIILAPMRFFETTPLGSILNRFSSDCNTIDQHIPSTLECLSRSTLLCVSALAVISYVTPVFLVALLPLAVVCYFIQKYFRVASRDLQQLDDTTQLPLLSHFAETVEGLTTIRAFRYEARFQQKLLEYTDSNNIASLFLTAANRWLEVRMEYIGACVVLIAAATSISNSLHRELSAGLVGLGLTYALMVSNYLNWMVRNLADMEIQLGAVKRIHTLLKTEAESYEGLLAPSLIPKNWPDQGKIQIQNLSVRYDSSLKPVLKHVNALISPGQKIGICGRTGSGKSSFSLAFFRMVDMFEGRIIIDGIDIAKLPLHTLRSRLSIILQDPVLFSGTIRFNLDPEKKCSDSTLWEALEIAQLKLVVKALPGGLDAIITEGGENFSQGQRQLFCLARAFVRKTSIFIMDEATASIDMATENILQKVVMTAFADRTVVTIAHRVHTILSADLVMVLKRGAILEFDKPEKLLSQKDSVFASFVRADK
T1 sequence (P70673 whole entry): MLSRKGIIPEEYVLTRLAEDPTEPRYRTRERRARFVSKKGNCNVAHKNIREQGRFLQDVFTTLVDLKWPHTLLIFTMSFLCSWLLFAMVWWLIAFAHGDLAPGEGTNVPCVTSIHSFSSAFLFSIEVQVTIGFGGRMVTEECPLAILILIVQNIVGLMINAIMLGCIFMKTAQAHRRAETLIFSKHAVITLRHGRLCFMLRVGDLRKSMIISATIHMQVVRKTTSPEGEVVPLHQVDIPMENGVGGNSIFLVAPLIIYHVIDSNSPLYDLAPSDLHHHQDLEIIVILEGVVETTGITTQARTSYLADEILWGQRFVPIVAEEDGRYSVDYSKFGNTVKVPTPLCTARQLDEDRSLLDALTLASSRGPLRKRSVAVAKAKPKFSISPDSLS
Procedure: (§1) KATP channel-deficient COS7 cells were plated at a density of 3 × 10^5/dish (35 mm in diameter) and cultured in Dulbecco's modified Eagle's medium supplemented with 10% fetal calf serum. Rat Kir6.2 (GenBank X97041) and rat SUR1 (GenBank X97279) cDNAs were used for expression study. A truncated form of Kir6.2 lacking the last 36 amino acids at the C-terminus was obtained by polymerase chain reaction amplification. Polymerase chain reaction products were cloned into the pCR3.1 vector by using the TA cloning system (Invitrogen Corp., Carlsbad, CA, USA) and then cloned into the pcDNA3.1 (-) vector (Invitrogen Corp.) for mammalian expression. Point mutation of cysteine at position 717 (C717), C806, C1378, C1446, and C1491 within SUR1 to serine (C717S, C806S, C1378S, C1446S, and C1491S) was performed by using the Site-Directed Mutagenesis system (Invitrogen Corp.). All cDNA products were sequenced by using the BigDye terminator cycle sequencing kit and an ABI PRISM 377 DNA sequencer (Applied Biosystems, Foster City, CA) to confirm the sequence. A full-length Kir cDNA and a full-length SUR cDNA were subcloned into the mammalian expression vector pcDNA3.1 (-). For electrophysiological recordings, either wild-type or mutated pcDNA3.1 (-) Kir6.2 alone (1 μg), or pcDNA3.1 (-) Kir6.2 (1 μg) plus pcDNA3.1 (-) SUR1 (3 μg) were transfected into COS7 cells with green fluorescent protein cDNA as a reporter gene by using lipofectamine and Opti-MEN 1 reagents (Life Technologies Inc., Rockville, MD) according to the manufacturer's instructions. After transfection, cells were cultured at 37°C with 95% air and 5% CO2 for 48–72 h before being subjected to electrophysiological recordings.
(§2) We recorded current passing through single channels in inside-out or cell-attached patch configurations. In cell-attached patches, both bath and pipette (extracellular) solutions were composed of the following: 140 mM KCl, 10 mM HEPES, 5.5 mM dextrose, and 1 mM EGTA. In inside-out patches, the bath (intracellular) solution contained 140 mM KCl, 1.2 mM MgCl2, 10 mM HEPES, 1.5 mM EGTA and 5.5 mM dextrose. The pipette (extracellular) solution was of the same composition as that used in cell-attached recordings. The pH of all solutions was adjusted to 7.4 with KOH. Osmolality was adjusted approximately to 300 mOsm/l by adding sucrose if necessary. We pulled patch micropipettes from borosilicate glass capillaries using a Flaming/Brown micropipette puller, model P-97 (Sutter, San Rafael, CA) and flame polished them with a microforge polisher (Narishige, Tokyo, Japan) prior to use. Their resistance ranged between 3 and 6 MΩ when filled with the internal solution, and placed into the recording solutions.
(§3) We recorded single channel currents at room temperature (20–25°C) using an Axon CNS Multiclamp 700B amplifier, digitized them using an analog-to-digital converter (Axon CNS DigiData 1440A; Axon Instruments, Foster, CA), and stored them into a PC. Sampling frequency of single-channel data was 5 KHz with a low-pass filter (1 KHz). We used pClamp version 10.2 software (Axon Instruments) for data acquisition and analysis. […] Channel open probability (Po) was determined from the ratios of the area under the peaks in the amplitude histograms fitted by a Gaussian distribution. We calculated channel activity as NPo (where N is the number of observed channels in the patch) from data samples of either 30 s (in inside-out recordings), or 60 s (in cell-attached recordings), in the steady state. […]

[2] = molecular target: T2, KATP channels in large DRG neurons (Rattus norvegicus, UniProt P70673+Q09429); experiment: Excised inside-out (cell-free) patch-clamp recording of KATP channel activity
T2 construct: native KATP channels in large DRG neurons; endogenous in cells; host or cells: acutely dissociated large-diameter neurons from rat L4/L5 dorsal root ganglia (sham-operated or spinal nerve ligated animals)
T2 sequence (Q09429 whole entry): as the sequence (Q09429 whole entry C717S) above, with S717C counted along it
T2 sequence (P70673 whole entry): as the sequence (P70673 whole entry) above
Text: We harvested control (L4 and L5) or axotomized (L5) ganglia, from control (SS) or hyperalgesic rats (SNL) respectively, between the 17th and 28th postoperative days. We sacrificed animals by decapitation under deep isoflurane anesthesia, excised ganglia through a lumbar incision, and at the same time confirmed accuracy of initial surgery.
For patch-clamp recordings, we placed excised DRG into separate 35 mm Petri dishes containing cold, oxygenated, Hanks Balanced Salt Solution (Gibko, Invitrogen, Grand Islan, NY), and minced them with iris scissors. We dissociated ganglia enzymatically in a solution containing 0.25 ml 0.05% w:v liberase blendzyme 2 (Roche Diagnostics Corp., Indianapolis, IN) and 0.25 ml DMEM/F12 with glutaMAX (Dulbecco's modified Eagle's medium F12; Gibco, Invitrogen Corp., Carlsbad, CA) in an incubator at 37°C for 30 min. We then removed the supernatant after centrifugation and re-incubated cells at 37°C for another 30 min in 0.2 ml 0.0625% trypsin (Sigma, St. Louis, MO) and 0.0125% deoxyribonuclease 1 (150,000 U, Sigma, St. Louis, MO) in 0.25 ml DMEM. We then isolated cells by centrifugation (600 rpm for 5 min) after adding 0.25 ml trypsin inhibitor 0.1% w:v (Sigma St. Louis, MO), and re-suspended them in a culture medium consisting of 0.5 mM glutamine, 0.02 mg/ml gentamicin (Gibco, Invitrogen Corp., Carlsbad, CA), 100 ng/ml nerve growth factor 7S (Alomone Labs, Jerusalem, Israel), 2% (vol/vol) B-27 supplement (Gibco, Invitrogen Corp., Carlsbad, CA), and 98% (vol/vol) neural basal medium A (Gibco, Invitrogen Corp., Carlsbad, CA). Finally, we plated cells onto poly-l-lysine-coated 12-mm glass coverslips (Deutsche Spiegelglas; Carolina Biologic Supply, Burlington, NC), kept them in a humidified incubator at 37°C with 95% air and 5% CO2, and studied them within 3–8 h of dissociation.
We visualized plated neurons using an inverted Nikon Diaphot 300 microscope with Hoffman modulation optic system. We selected only large diameter neuronal somata (≥ 40 μm in diameter) because we have previously shown that only these develop KATP current alterations, as well as changes indicative of increased excitability after painful-like nerve injury by SNL [74]. Large neuronal somata, roughly correspond to large, myelinated Aβ fibers.
as §2
We recorded single channel currents at room temperature (20–25°C) using an Axon CNS Multiclamp 700B amplifier, digitized them using an analog-to-digital converter (Axon CNS DigiData 1440A; Axon Instruments, Foster, CA), and stored them into a PC. Sampling frequency of single-channel data was 5 KHz with a low-pass filter (1 KHz). We used pClamp version 10.2 software (Axon Instruments) for data acquisition and analysis. We applied a conventional 50% current amplitude threshold level criterion to determine open events. Channel open probability (Po) was determined from the ratios of the area under the peaks in the amplitude histograms fitted by a Gaussian distribution. […]

[3] = molecular target: T3, wild-type SUR1/Kir6.2 channels (Rattus norvegicus, UniProt P70673+Q09429); experiment: Inside-out patch recording of recombinant wild-type channels expressed in COS7 cells
T3 construct: A full-length Kir cDNA and a full-length SUR cDNA were subcloned into the mammalian expression vector; expressed in transfected cells; host or cells: COS7 cells (KATP channel-deficient), pcDNA3.1(-) vectors, GFP cDNA co-transfected as a separate reporter
T3 sequence (Q09429 whole entry): as the sequence (Q09429 whole entry C717S) above, with S717C counted along it
T3 sequence (P70673 whole entry): as the sequence (P70673 whole entry) above
Procedure: as §1, §2, §3

Nc1ncnc2c1ncn2[C@@H]1O[C@H](COP(=O)(O)OP(=O)(O)OP(=O)(O)O)[C@@H](O)[C@H]1O [ATP]
effect on recombinant channel currents ([1]; 1 mM [ATP]i): strongly inhibited
IC50 ([1]; read-out: ATP-sensitivity IC50): 13.1 µM
effect on channel activity in inside-out patches ([2]; ATP 1 mM, SS and SNL, -60 mV): reversibly blocked
IC50 ([2]; SNL neurons, various intracellular ATP concentrations, n = 5, read-out: ATP sensitivity IC50): 18.1 µM
IC50 ([2]; SS neurons, various intracellular ATP concentrations, n = 5, read-out: ATP sensitivity IC50): 14.7 µM
IC50 ([2]; absence of SNAP, SS neurons, n = 7, read-out: IC50 value for [ATP]i): 12.8 µM
IC50 ([2]; presence of SNAP, SS neurons, n = 7, read-out: IC50 value for [ATP]i): 54.4 µM
effect on recombinant channel currents ([3]; 1 mM [ATP]i, COS7 cells, inside-out): strongly inhibited
IC50 ([3]; n = 7, read-out: ATP-sensitivity IC50): 11.6 µM
